Some test systems named below: 786-0; CAKI-1; COLO 205; HCT-116; HCT-15; HL-60; HOP-62; MCF7; MDA-MB-435; NCI-H460; NCI-H522; OVCAR-8; RXF 393; SK-MEL-2; SK-MEL-5; SNB-19; SNB-75; UACC-62; RPMI-8226; HOP-92.
What all share (assay): NCI tumour cell line growth inhibition, 48 h

The structures appear in SMILES notation.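 Each compound was tested at five concentrations against cells in 96-well plates for 48 hours. The concentration for 50% growth inhibition is given as GI50.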 Calls of active or inactive are those of the source. No stated cut-off is given here; in the data, active = GI50 up to about 1.1 µM and inactive = higher.

Regarding `CC1=C(N2CC2)C(=O)c2ccccc2C1=O`, the GI50 in the test on 786-0 was 0.871 µM (active); in the test with CAKI-1 it was 0.556 µM (active); in the test on COLO 205, 0.762 µM (active); in the test with HCT-116, 1.37 µM (inactive); in the test with HCT-15, 1.05 µM; in the test with HL-60, 2.52 µM (inactive). The GI50 in the test with HOP-62 was 1.04 µM (active); in the test on MCF7, 0.249 µM (active); in the test with MDA-MB-435, 1.51 µM (inactive); with NCI-H460, 0.454 µM (active); in the test with NCI-H522 it was 0.444 µM (active); in the test with OVCAR-8, 0.506 µM (active). Besides, the GI50 is 0.422 µM (active) with RXF 393; 1.54 µM (inactive) in the test with SK-MEL-2; 0.164 µM (active) with SK-MEL-5; 1.21 µM (inactive) in the test with SNB-19; 0.462 µM (active) with SNB-75; 0.811 µM (active) in the test with UACC-62.

`CCCCCCC(O)C(=O)OC1C2C(CC1(C)C)C(O)C13OC1C(O)C1(CO1)[C@@]23C` (some centres not stated): the GI50 with 786-0 was 25.4 µM (inactive); with CAKI-1 it was > 100 µM (inactive); in the test with COLO 205, 49.2 µM (inactive); in the test with HCT-116, 47.4 µM (inactive); with HCT-15, 81.7 µM; with HL-60, > 100 µM (inactive). The GI50 in the test on HOP-62 was 58.7 µM (inactive); in the test with MCF7 it was 36.4 µM (inactive); in the test on MDA-MB-435, 50.9 µM (inactive); with NCI-H460 it was > 10 µM (inactive); in the test with NCI-H522 it was 61.1 µM (inactive); in the test on OVCAR-8, 69.8 µM (inactive). For the same molecule, the GI50 in the test with RPMI-8226 was 40.9 µM (inactive); in the test with RXF 393, 23 µM (inactive); in the test with SK-MEL-5, 13.4 µM (inactive); in the test with SNB-19, 65.2 µM (inactive); in the test with SNB-75 it was 8.83 µM (inactive); in the test on UACC-62, 26 µM (inactive).

Take `COC(=O)CNC(=O)Nc1cc(N2C(=O)ON3C2C(C)(C)N(O)C3(C)C)ccc1C` (configuration not stated): the GI50 with 786-0 is > 100 µM (inactive); in the test with CAKI-1 it was > 100 µM (inactive); with COLO 205, > 100 µM (inactive); with HCT-116, > 100 µM (inactive); with HCT-15 it was 66.5 µM; in the test on HOP-62, > 100 µM (inactive). Besides, the GI50 with MCF7, with MDA-MB-435, with NCI-H460, in the test on NCI-H522, in the test with OVCAR-8 and with RXF 393 was > 100 µM (inactive) in each case. Moreover, the GI50 in the test with SK-MEL-2 was 59.4 µM (inactive); with SK-MEL-5, > 100 µM (inactive); with SNB-19, > 100 µM (inactive); with SNB-75, > 100 µM (inactive); in the test on UACC-62, > 100 µM (inactive).

On to `CN1CCN(CCCN)CC1`, for which the GI50 in the test on 786-0 was > 100 µM (inactive); with CAKI-1, > 100 µM (inactive); with COLO 205, > 100 µM (inactive); in the test with HCT-116, > 100 µM (inactive); with HCT-15, > 100 µM; in the test on HL-60, > 100 µM (inactive). The GI50 in the test on HOP-62, in the test with MCF7, in the test with MDA-MB-435, with NCI-H522, in the test on OVCAR-8 and in the test with RPMI-8226 was > 100 µM (inactive) throughout. In addition, the GI50 in the test with RXF 393, with SK-MEL-2, in the test with SK-MEL-5, in the test on SNB-19, in the test on SNB-75 and in the test with UACC-62 was > 100 µM (inactive) in each case.

`CCSCCCC(=O)O`: the GI50 was > 100 µM (inactive) in the test on 786-0; > 100 µM (inactive) in the test on CAKI-1; > 100 µM (inactive) in the test on COLO 205; > 100 µM (inactive) in the test on HCT-116; > 100 µM in the test with HCT-15; > 100 µM (inactive) in the test on HL-60. The GI50 in the test on HOP-62, with MCF7, with MDA-MB-435, in the test on NCI-H522, with OVCAR-8 and in the test on RPMI-8226 was > 100 µM (inactive) throughout. Further, the GI50 in the test with RXF 393, with SK-MEL-2, in the test with SK-MEL-5, with SNB-19, in the test on SNB-75 and in the test with UACC-62 was > 100 µM (inactive) in each case.

For the molecule `Cc1cc(-c2cscn2)c(O)c([N+](=O)[O-])c1`, the GI50 is 60.8 µM (inactive) in the test with 786-0; 43 µM (inactive) in the test with CAKI-1; 28.3 µM (inactive) with COLO 205; 49.7 µM (inactive) with HCT-116; 38.4 µM in the test with HCT-15; 34.8 µM (inactive) in the test on HL-60. Moreover, the GI50 with HOP-62 is 52.7 µM (inactive); in the test with HOP-92, 93.5 µM (inactive); in the test with MCF7 it was 21.4 µM (inactive); in the test on MDA-MB-435 it was 74.3 µM (inactive); with NCI-H460 it was 34.2 µM (inactive); in the test on OVCAR-8, 48.3 µM (inactive). Besides, the GI50 in the test on RPMI-8226 was 52.6 µM (inactive); in the test on SK-MEL-2, 85.1 µM (inactive); with SK-MEL-5, 31 µM (inactive); in the test with SNB-19, > 100 µM (inactive); in the test with UACC-62, 62.7 µM (inactive).

For the molecule `FC1(F)[Se]C2C3CCC(C3)C2C1(F)F` (configuration not stated), the GI50 was > 100 µM (inactive) in the test with 786-0; > 100 µM (inactive) with CAKI-1; > 100 µM (inactive) with COLO 205; 56.2 µM (inactive) in the test with HCT-116; > 100 µM with HCT-15; > 100 µM (inactive) in the test on HOP-62. Besides, the GI50 in the test with MCF7, in the test with MDA-MB-435, with NCI-H460, in the test with NCI-H522, in the test on OVCAR-8 and with RPMI-8226 was > 100 µM (inactive) in each case. Also, the GI50 in the test on RXF 393 is > 100 µM (inactive); in the test on SK-MEL-2 it was > 100 µM (inactive); in the test with SK-MEL-5, > 100 µM (inactive); in the test on SNB-19 it was > 100 µM (inactive); with SNB-75, 97.3 µM (inactive); in the test with UACC-62, > 100 µM (inactive).

As to `COc1ccc(-c2c(N)n(-c3cccc(C(=O)O)c3)c(=O)c3cc([N+](=O)[O-])ccc23)cc1`, the GI50 in the test on 786-0 is > 100 µM (inactive); with CAKI-1, > 100 µM (inactive); in the test with HCT-116, > 100 µM (inactive); in the test with HCT-15, > 100 µM; in the test with HL-60, > 100 µM (inactive); in the test with HOP-62, > 100 µM (inactive). Besides, the GI50 with MCF7, in the test with MDA-MB-435, in the test on NCI-H460, with NCI-H522, with OVCAR-8 and in the test on RPMI-8226 was > 100 µM (inactive) each time. Moreover, the GI50 in the test with RXF 393, with SK-MEL-2, in the test on SK-MEL-5, with SNB-19, in the test on SNB-75 and in the test on UACC-62 was > 100 µM (inactive) in each case.

These data come from ChEMBL document CHEMBL1201862, “PubChem BioAssay data set” (2004).
